In BigSolDB 2.1:

C=CC(=O)N1CCC[C@@H](n2nc(-c3ccc(Oc4ccccc4)cc3)c3c(N)ncnc32)C1
solubility (mole fraction)
Settings	298.15 K	303.15 K	308.15 K	313.15 K	323.15 K
in ethanol	0.00312	0.00356	0.00396	0.00447	0.00551
in water	1.42e-07	2.22e-07	3.12e-07	4.29e-07	7.77e-07
